Consider 3 molecules from patent US20100105098A1, “Methods of Identifying Disease Biomarkers in the Lense of the Eye” (priority 2006, published 2010).

The test system of one series is cultured lens. The settings on record: bolus of 250 μM H2O2, incubated for 24 hrs. The method, then: FIG. 26: Cultured lens exposed to a bolus of 250 μM H2O2 incubated for 24 hrs.
Optimizing sensitivity for Raman. […] In previous in vitro studies Laser probes at 514 nm (82), and 647 nm (34) wavelengths were used for detection and characterization of Aβ-metal complex signature intensities in situ in lenses.

The conditions of series [1]: in vitro, cited from earlier work.

`OO` [H2O2, hydrogen peroxide]: the “light scattering indicative of lens opacification” value in the series with cultured lens is “increases over time”.

For “Aβ1-40: human β-amyloid peptide, 1-40 amino acid form derived from APP”, the “H2O2 produced relative to Aβ1-42 peptides” value in series [1] (human peptides) is roughly 50%.

In the case of “rat Aβ1-40: rat β-amyloid peptide 1-40, lacking two key metal chelating amino acids (DAEFGHDSGFEVRHQKLVFFAEDVGSNKGAIIGLMVGGVV; Amyloid-beta protein 40; UniProt P08592 672-711, looked up, fragment)”, the “H2O2 produced relative to human Aβ1-40” value in series [1] (rat peptides) is recorded as roughly 20%.
